Assay results reported in the supplement of paper PMC10307832.

Experiments:
Assay in all cases: relative viability (nuclei count vs DMSO), 5 days (fraction); higher = more cells survive
EKVX = test system: EKVX
Summary of the method: (§1)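 Lung cancer cell lines were pin-tool dosed in 1536-well plates on the day after seeding, with either a lone drug or a fixed anchor-drug dose plus five library-drug doses (not always all listed) in √10 steps. Nuclei were counted on 4× images after 5 days. Relative viability is the ratio of treated-well to vehicle-well nuclei counts, with each value a median of duplicate plates.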

NCI-H727 = test system: NCI-H727
Summary of the method: as §1

NCI-H661 = test system: NCI-H661
Summary of the method: as §1

CAL-12T = test system: CAL-12T
Summary of the method: as §1

201T = test system: 201T
Summary of the method: as §1

SW 900 = test system: SW 900
Summary of the method: as §1

NCI-H441 = test system: NCI-H441
Summary of the method: as §1

LOU-NH91 = test system: LOU-NH91
Summary of the method: as §1

NCI-H1650 = test system: NCI-H1650
Summary of the method: as §1

BEN = test system: BEN
Summary of the method: as §1

PC-14 = test system: PC-14
Summary of the method: as §1

NCI-H2009 = test system: NCI-H2009
Summary of the method: as §1

COR-L 105 = test system: COR-L 105
Summary of the method: as §1

HARA = test system: HARA
Summary of the method: as §1

NCI-H460 = test system: NCI-H460
Summary of the method: as §1

NCI-H2170 = test system: NCI-H2170
Summary of the method: as §1

LK-2 = test system: LK-2
Summary of the method: as §1

NCI-H1437 = test system: NCI-H1437
Summary of the method: as §1

NCI-H3122 = test system: NCI-H3122
Summary of the method: as §1

HCC-366 = test system: HCC-366
Summary of the method: as §1

NCI-H1666 = test system: NCI-H1666
Summary of the method: as §1

Compound `COc1nc(C)cnc1NS(=O)(=O)c1cccnc1-c1ccc(-c2nnco2)cc1` [Zibotentan] + CC(=O)Nc1cccc(-n2c(=O)n(C3CC3)c(=O)c3c(Nc4ccc(I)cc4F)n(C)c(=O)c(C)c32)c1 [Trametinib] (partner 0.02 µM) has a relative viability (EKVX; first compound 0.08 µM) of 0.33, a relative viability (EKVX; first compound 0.253 µM) of 0.364 and a relative viability (EKVX; first compound 0.8 µM) of 0.315. It also gave a relative viability (EKVX; first compound 2.53 µM) of 0.321, a relative viability (NCI-H727; first compound 0.08 µM) of 0.371 and a relative viability (NCI-H727; first compound 0.253 µM) of 0.415. The relative viability (NCI-H727; first compound 0.8 µM) was 0.441, the relative viability (NCI-H727; first compound 2.53 µM) was 0.439 and the relative viability (NCI-H661; first compound 0.08 µM) was 0.574. It also gave a relative viability (NCI-H661; first compound 0.253 µM) of 0.495, a relative viability (NCI-H661; first compound 0.8 µM) of 0.589 and a relative viability (NCI-H661; first compound 2.53 µM) of 0.601. For the same compound, the relative viability (CAL-12T; first compound 0.08 µM) was 0.34, the relative viability (CAL-12T; first compound 0.253 µM) was 0.303 and the relative viability (CAL-12T; first compound 0.8 µM) was 0.349. The relative viability (CAL-12T; first compound 2.53 µM) was 0.337, the relative viability (201T; first compound 0.08 µM) was 0.714 and the relative viability (201T; first compound 0.253 µM) was 0.714. It also gave a relative viability (201T; first compound 0.8 µM) of 0.734, a relative viability (201T; first compound 2.53 µM) of 0.746 and a relative viability (SW 900; first compound 0.08 µM) of 0.893. The relative viability (SW 900; first compound 0.253 µM) was 0.817, the relative viability (SW 900; first compound 0.8 µM) was 0.846 and the relative viability (SW 900; first compound 2.53 µM) was 0.751. It also gave a relative viability (NCI-H441; first compound 0.08 µM) of 0.454, a relative viability (NCI-H441; first compound 0.253 µM) of 0.408 and a relative viability (NCI-H441; first compound 0.8 µM) of 0.544. It also gave a relative viability (NCI-H441; first compound 2.53 µM) of 0.471, a relative viability (LOU-NH91; first compound 0.08 µM) of 0.777 and a relative viability (LOU-NH91; first compound 0.253 µM) of 0.814. The relative viability (LOU-NH91; first compound 0.8 µM) was 0.817, the relative viability (LOU-NH91; first compound 2.53 µM) was 0.816 and the relative viability (NCI-H1650; first compound 0.08 µM) was 0.533. It also gave a relative viability (NCI-H1650; first compound 0.8 µM) of 0.563, a relative viability (NCI-H1650; first compound 2.53 µM) of 0.557 and a relative viability (BEN; first compound 0.08 µM) of 1.04. For the same compound, the relative viability (BEN; first compound 0.253 µM) was 0.926, the relative viability (BEN; first compound 0.8 µM) was 0.832 and the relative viability (BEN; first compound 2.53 µM) was 0.979. For the same compound, the relative viability (PC-14; first compound 0.08 µM) was 0.833, the relative viability (PC-14; first compound 0.253 µM) was 0.752 and the relative viability (PC-14; first compound 0.8 µM) was 0.733. For the same compound, the relative viability (PC-14; first compound 2.53 µM) was 0.735, the relative viability (NCI-H2009; first compound 0.08 µM) was 0.273 and the relative viability (NCI-H2009; first compound 0.253 µM) was 0.258. It also gave a relative viability (NCI-H2009; first compound 0.8 µM) of 0.266, a relative viability (NCI-H2009; first compound 2.53 µM) of 0.278 and a relative viability (COR-L 105; first compound 0.08 µM) of 0.403. The relative viability (COR-L 105; first compound 0.253 µM) was 0.411, the relative viability (COR-L 105; first compound 0.8 µM) was 0.482 and the relative viability (COR-L 105; first compound 2.53 µM) was 0.475. It also gave a relative viability (HARA; first compound 0.08 µM) of 0.996, a relative viability (HARA; first compound 0.8 µM) of 0.414 and a relative viability (HARA; first compound 2.53 µM) of 0.764. It also gave a relative viability (NCI-H460; first compound 0.08 µM) of 0.159, a relative viability (NCI-H460; first compound 0.253 µM) of 0.0304 and a relative viability (NCI-H460; first compound 0.8 µM) of 0.0981. The relative viability (NCI-H460; first compound 2.53 µM) was 0.196, the relative viability (NCI-H2170; first compound 0.08 µM) was 0.966 and the relative viability (NCI-H2170; first compound 0.253 µM) was 0.897. The relative viability (NCI-H2170; first compound 0.8 µM) was 0.903, the relative viability (NCI-H2170; first compound 2.53 µM) was 0.908 and the relative viability (LK-2; first compound 0.08 µM) was 0.881. The relative viability (LK-2; first compound 0.253 µM) was 0.793, the relative viability (LK-2; first compound 0.8 µM) was 0.83 and the relative viability (LK-2; first compound 2.53 µM) was 0.703. For the same compound, the relative viability (NCI-H1437; first compound 0.08 µM) was 0.533, the relative viability (NCI-H1437; first compound 0.253 µM) was 0.541 and the relative viability (NCI-H1437; first compound 0.8 µM) was 0.455. It also gave a relative viability (NCI-H1437; first compound 2.53 µM) of 0.496, a relative viability (NCI-H3122; first compound 0.08 µM) of 0.234 and a relative viability (NCI-H3122; first compound 0.253 µM) of 0.211. It also gave a relative viability (NCI-H3122; first compound 0.8 µM) of 0.218, a relative viability (NCI-H3122; first compound 2.53 µM) of 0.219 and a relative viability (HCC-366; first compound 0.08 µM) of 0.378. For the same compound, the relative viability (HCC-366; first compound 0.253 µM) was 0.318, the relative viability (HCC-366; first compound 0.8 µM) was 0.361 and the relative viability (HCC-366; first compound 2.53 µM) was 0.383. For the same compound, the relative viability (NCI-H1666; first compound 0.08 µM) was 0.882, the relative viability (NCI-H1666; first compound 0.253 µM) was 0.779 and the relative viability (NCI-H1666; first compound 0.8 µM) was 0.821. For the same compound, the relative viability (NCI-H1666; first compound 2.53 µM) was 0.863.
